{"source": "patent US20030232114A1", "about": "“Method for liquid enrichment with oxygen and applications of enriched liquids” (priority 2002, published 2003)", "tested_on": "rats having a myocardial infarction due to a restriction of the coronaries", "assay": "Oxygen consumption in damaged tissues of rats with myocardial infarction (acute occlusion of blood vessels)", "assay_type": "in vivo", "details": "conventional oxygen treatment by inhalation by means of a cannula, monitored for five days", "protocol": "The oxygen enriched solutions of the invention were tested on experimental animals subjected to an acute occlusion of blood vessels which provoked degenerative changes of the interested tissues.\nAn oxygen enriched physiological solution of 0.3 cc having an oxygen partial pressure of 2 bar was intravenously administered at a rate of 1 g/min twice a days to a first group of 5 rats having a myocardial infarction due to a restriction of the coronaries. A second group of rats with the same disease, was subjected to a conventional oxygen treatment by inhalation by means of a cannula.\nThe results of the treatment were monitored and scheduled for five days. The first group of animals, treated by administering a solution in accordance with an embodiment of the present invention consumed 20% of oxygen in the damaged tissues whereas the second group which received the oxygen by inhalation consumed only 5% of oxygen in the damaged tissues."}
{"smiles": "O=O", "note": "[oxygen]", "values": [{"measurement": "oxygen consumed in the damaged tissues", "value": 5, "unit": "%"}]}
